# Reference: patent publication EP4806435A1, “DIHYDROCHROMENE-DERIVATIVE-CONTAINING THERAPEUTIC AGENT FOR CANCER” (Sumitomo Pharma Co., Ltd., priority 2023, dated 2025)
# Tested on: patients with recurrent malignant glioma classified as WHO grade III or IV
# Assay: Phase 1 dose-escalation clinical trial: safety (TEAEs, DLTs, MTD);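 note: dosing continued until unacceptable toxicity, consent withdrawal, loss to follow-up or investigator/sponsor decision, with cohorts of 1-6 patients per dose level and MTD estimated by BLRM from cumulative DLT data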
# [1] = 480 mg daily (240 mg BID) (N=6), cutoff April 21, 2024
# [2] = 480 mg daily [240 mg BID] group, cutoff April 21, 2024
# [3] = N=23 (n=2), cutoff April 21, 2023
# [4] = N=39 (n=2), cutoff April 21, 2024
# [5] = N=39 (n=3), cutoff April 21, 2024
# [6] = Total (N=23), cutoff April 21, 2023
# [7] = Total (N=39), cutoff April 21, 2024
# Method: Administration to each subject was continued until unacceptable toxicity occurred, consent was withdrawn, the subject was lost to follow-up, or discontinuation was determined by the investigator and/or the sponsor.
# The present study consists of two parts: a dose-escalation part (Part 1) and a dose-expansion part (Part 2).
# Each dose level was evaluated in cohorts of 1-6 patients. In all cohorts, administration of the investigational drug to the second and subsequent patients was permitted after completion of all safety assessments on Day 8 of Cycle 1 in the first patient. […] At dose level 2 in the dose-escalation part, at least three patients were required to be evaluated before escalation to a higher dose level. After completion of each cohort, the probability of observing a DLT at each dose level in the present study was updated using the BLRM based on cumulative data from the preceding cohorts, and the MTD was estimated.
compound,measurement,setting,value
"CC1(C)Oc2cc(Cl)ccc2[C@@H]2OCC3(CCN(CCn4ccnc4)CC3)C[C@H]21 [Compound 1, (4'aR,10'bR)-8'-chloro-1-[2-(1H-imidazol-1-yl)ethyl]-5',5'-dimethyl-4'a,10'b-dihydro-2'H,4'H,5'H-spiro[piperidine-4,3'-pyrano[3,2-c][1]benzopyran] diphosphate]",TEAE: alopecia,[1],1 (16.7) n (%)
same,TEAE: constipation,[1],1 (16.7) n (%)
same,TEAE: decreased appetite,[1],1 (16.7) n (%)
same,TEAE: decreased lymphocyte count,[1],1 (16.7) n (%)
same,TEAE: decreased neutrophil count,[1],0 n (%)
same,TEAE: decreased platelet count,[1],0 n (%)
same,TEAE: diarrhea,[1],0 n (%)
same,TEAE: dry skin,[1],3 (50.0) n (%)
same,TEAE: fall,[1],3 (50.0) n (%)
same,TEAE: fatigue,[1],2 (33.3) n (%)
same,TEAE: headache,[1],0 n (%)
same,TEAE: hypertrigly-ceridaemia,[1],0 n (%)
same,TEAE: hyponatremia,[1],1 (16.7) n (%)
same,TEAE: increase in blood cholesterol,[1],1 (16.7) n (%)
same,TEAE: increased alanine aminotransferase,[1],5 (83.3) n (%)
same,TEAE: increased aspartate aminotransferase,[1],2 (33.3) n (%)
same,TEAE: maculopapular rash,[1],3 (50.0) n (%)
same,TEAE: nausea,[1],2 (33.3) n (%)
same,TEAE: seizure,[1],1 (16.7) n (%)
same,TEAE: vomiting,[1],3 (50.0) n (%)
same,patients with DLTs (Grade 3 maculopapular rash; Grade 2 nausea and vomiting),"480 mg daily (240 mg BID), cutoff April 21, 2024",two
same,serious TEAE: confusional state,[2],one
same,serious TEAE: fatigue,[2],one
same,patients with serious TEAEs,"N=23 (6 patients), cutoff April 21, 2023",26.1%
same,patients with Grade ≥3 TEAEs,"N=23 (13 patients), cutoff April 21, 2023",56.5%
same,patients with TEAEs considered to be related to the study drug,"N=23 (16 patients), cutoff April 21, 2023",69.6%
same,Grade ≥3 TEAE: aphasia,[3],8.7%
same,Grade ≥3 TEAE: decreased lymphocyte count,[3],8.7%
same,Grade ≥3 TEAE: decreased white blood cell count,[3],8.7%
same,Grade ≥3 TEAE: headache,[3],8.7%
same,Grade ≥3 TEAE: decreased neutrophil count,"N=23 (n=3), cutoff April 21, 2023",13.0%
same,Grade ≥3 TEAE: seizure,"N=23 (n=4), cutoff April 21, 2023",17.4%
same,patients who died during the study due to TEAEs (assessed as not related),"N=23, 40 mg and 240 mg groups, cutoff April 21, 2023",two
same,Grade ≥3 TEAE considered related to Compound 1 (dry skin),"N=23, cutoff April 21, 2023",one
same,relatedness of serious TEAEs to Compound 1,"N=23, cutoff April 21, 2023",None of these serious TEAEs were considered to be related to Compound 1
same,patients with serious TEAEs,"N=39 (9 patients), cutoff April 21, 2024",23.1%
same,patients with Grade ≥3 TEAEs,"N=39 (23 patients), cutoff April 21, 2024",59.0%
same,patients with TEAEs considered to be related to the study drug,"N=39 (30 patients), cutoff April 21, 2024",76.9%
same,Grade ≥3 TEAE considered related to Compound 1: fatigue,"N=39 (n=1), cutoff April 21, 2024",2.6%
same,Grade ≥3 TEAE considered related to Compound 1: dry skin,[4],5.1%
same,Grade ≥3 TEAE considered related to Compound 1: maculopapular rash,[4],5.1%
same,Grade ≥3 TEAE: decreased white blood cell count,[4],5.1%
same,Grade ≥3 TEAE: dry skin,[4],5.1%
same,Grade ≥3 TEAE: increased alanine aminotransferase,[4],5.1%
same,Grade ≥3 TEAE: maculopapular rash,[4],5.1%
same,Grade ≥3 TEAE: aphasia,[5],7.7%
same,Grade ≥3 TEAE: decreased lymphocyte count,[5],7.7%
same,Grade ≥3 TEAE: decreased neutrophil count,[5],7.7%
same,Grade ≥3 TEAE: headache,[5],7.7%
same,Grade ≥3 TEAE: fatigue,"N=39 (n=4), cutoff April 21, 2024",10.3%
same,Grade ≥3 TEAE: seizure,"N=39 (n=5), cutoff April 21, 2024",12.8%
same,patients who died during the study due to TEAEs,"N=39, 40 mg QD and 240 mg QD groups, cutoff April 21, 2024",Two
same,serious TEAEs considered to be related to Compound 1,"N=39, cutoff April 21, 2024",nine and None of these serious TEAEs were considered to be related to Compound 1
same,Number of patients with any TEAE,[6],23 (100) n (%)
same,TEAE: constipation,[6],7 (30.4) n (%)
same,TEAE: decreased appetite,[6],3 (13.0) n (%)
same,TEAE: decreased lymphocyte count,[6],5 (21.7) n (%)
same,TEAE: decreased neutrophil count,[6],6 (26.1) n (%)
same,TEAE: decreased platelet count,[6],4 (17.4) n (%)
same,TEAE: decreased white blood cell count,[6],3 (13.0) n (%)
same,TEAE: dry skin,[6],5 (21.7) n (%)
same,TEAE: fall,[6],3 (13.0) n (%)
same,TEAE: headache,[6],7 (30.4) n (%)
same,TEAE: hypertrigly-ceridaemia,[6],4 (17.4) n (%)
same,TEAE: hyponatremia,[6],3 (13.0) n (%)
same,TEAE: increased alanine aminotransferase,[6],12 (52.2) n (%)
same,TEAE: increased aspartate aminotransferase,[6],6 (26.1) n (%)
same,TEAE: nausea,[6],11 (47.8) n (%)
same,TEAE: seizure,[6],5 (21.7) n (%)
same,TEAE: vomiting,[6],6 (26.1) n (%)
same,Number of Patients with Any TEAE,[7],39 (100) n (%)
same,TEAE: Confusional state,[7],4 (10.3) n (%)
same,TEAE: Gait disturbance,[7],4 (10.3) n (%)
same,TEAE: Gastrointestinal disorder,[7],4 (10.3) n (%)
same,TEAE: Hiccups,[7],4 (10.3) n (%)
same,TEAE: Tremor,[7],4 (10.3) n (%)
same,TEAE: alopecia,[7],6 (15.4) n (%)
same,TEAE: constipation,[7],11 (28.2) n (%)
same,TEAE: decreased appetite,[7],6 (15.4) n (%)
same,TEAE: decreased lymphocyte count,[7],6 (15.4) n (%)
same,TEAE: decreased neutrophil count,[7],6 (15.4) n (%)
same,TEAE: decreased platelet count,[7],5 (12.8) n (%)
same,TEAE: diarrhea,[7],5 (12.8) n (%)
same,TEAE: dry skin,[7],10 (25.6) n (%)
same,TEAE: fall,[7],9 (23.1) n (%)
same,TEAE: fatigue,[7],7 (17.9) n (%)
same,TEAE: headache,[7],9 (23.1) n (%)
same,TEAE: hypertrigly-ceridaemia,[7],5 (12.8) n (%)
same,TEAE: hyponatremia,[7],5 (12.8) n (%)
same,TEAE: increase in blood cholesterol,[7],4 (10.3) n (%)
same,TEAE: increased alanine aminotransferase,[7],25 (64.1) n (%)
same,TEAE: increased aspartate aminotransferase,[7],13 (33.3) n (%)
same,TEAE: maculopapular rash,[7],4 (10.3) n (%)
same,TEAE: nausea,[7],21 (53.8) n (%)
same,TEAE: seizure,[7],7 (17.9) n (%)
same,TEAE: vomiting,[7],14 (35.9) n (%)
same,"study drug related Grade 3 AEs (dry skin, and rash)","as of September 2023, n=33",2
same,study drug-related SAEs,"as of September 2023, n=33",no study drug-related SAEs reported
same,dose-limiting toxicities (DLTs),"from 20 mg QD to 240 mg QD, cutoff April 21, 2024",No dose-limiting toxicities (DLTs) were observed
same,dose limiting toxicity,"from 20 mg up to 240 mg, as of September 2023",No dose limiting toxicity reported
same,serious TEAE: seizure,"one 20 mg QD, one 120 mg QD, two 180 mg QD, cutoff April 21, 2024",four
